In ChEMBL document CHEMBL1145754, “Design and synthesis of statine-containing BACE inhibitors” (Bioorg Med Chem Lett, 2003):
Non-standard residues stand in square brackets, D forms with d. Residues, ends and D or L forms follow the SMILES beside them. *: point of attachment. Sta = CC(C)C[C@H](N)[C@@H](O)CC(=O)O; 3Amb = NCc1cccc(C(=O)O)c1; Nle = CCCC[C@H](N)C(=O)O; Nva = CCC[C@H](N)C(=O)O; X1 = O=C(C1CCCCO1)*

Each compound was assayed against Beta-secretase 1 (Homo sapiens, UniProt P56817) (assay: Inhibition of human beta-secretase).
Sequence of Beta-secretase 1 (P56817 whole entry): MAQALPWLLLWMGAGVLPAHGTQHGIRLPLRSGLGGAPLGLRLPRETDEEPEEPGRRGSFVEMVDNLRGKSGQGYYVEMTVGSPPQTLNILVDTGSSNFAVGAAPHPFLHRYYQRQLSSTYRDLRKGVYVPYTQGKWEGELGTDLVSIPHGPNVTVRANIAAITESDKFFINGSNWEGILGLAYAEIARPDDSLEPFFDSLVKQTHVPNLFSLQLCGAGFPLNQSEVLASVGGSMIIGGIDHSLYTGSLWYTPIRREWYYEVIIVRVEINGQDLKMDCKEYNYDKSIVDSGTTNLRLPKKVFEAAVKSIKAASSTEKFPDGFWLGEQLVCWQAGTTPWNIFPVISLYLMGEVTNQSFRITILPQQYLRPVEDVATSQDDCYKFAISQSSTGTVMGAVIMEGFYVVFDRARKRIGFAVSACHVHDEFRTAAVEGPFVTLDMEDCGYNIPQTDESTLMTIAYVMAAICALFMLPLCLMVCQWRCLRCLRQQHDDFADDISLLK

Compound | IC50 [nM]
CC(C)C[C@H](NC(=O)[C@@H](N)CC(N)=O)[C@@H](O)CC(=O)N[C@H](C(=O)N[C@@H](C)C(=O)N[C@@H](CCC(=O)O)C(=O)N[C@@H](Cc1ccccc1)C(=O)O)C(C)C (H-N[Sta]VAEF-OH) | > 91000
CCCC[C@H](NC(C)=O)C(=O)N[C@@H](C)C(=O)N[C@@H](CC(C)C)[C@@H](O)CC(=O)N[C@H](C(=O)NCc1cccc(C(=O)O)c1)C(C)C (Ac-[Nle]A[Sta]V[3Amb]-OH) | 1400
CC(C)C[C@H](NC(=O)[C@H](CC(N)=O)NC(=O)[C@@H](NC(=O)[C@@H](N)CCC(=O)O)C(C)C)[C@@H](O)CC(=O)N[C@H](C(=O)N[C@@H](C)C(N)=O)C(C)C (H-EVN[Sta]VA-NH2) | 530
CCC[C@H](NC(C)=O)C(=O)N[C@@H](C)C(=O)N[C@@H](CC(C)C)[C@@H](O)CC(=O)N[C@H](C(=O)NCc1cccc(C(=O)O)c1)C(C)C (Ac-[Nva]A[Sta]V[3Amb]-OH) | 830
CC[C@@H](C)[C@@H](NC(C)=O)C(=O)N[C@@H](C)C(=O)N[C@@H](CC(C)C)[C@@H](O)CC(=O)N[C@H](C(=O)NCc1cccc(C(=O)O)c1)C(C)C | > 91000
CC(C)C[C@H](NC(=O)[C@H](CC(N)=O)NC(=O)[C@@H](N)C(C)C)[C@@H](O)CC(=O)N[C@H](C(=O)N[C@@H](C)C(=O)N[C@@H](CCC(=O)O)C(=O)N[C@@H](Cc1ccccc1)C(=O)O)C(C)C (H-VN[Sta]VAEF-OH) | 2000
CC(=O)N[C@@H](CC(C)C)C(=O)N[C@@H](C)C(=O)N[C@@H](CC(C)C)[C@@H](O)CC(=O)N[C@H](C(=O)NCc1cccc(C(=O)O)c1)C(C)C | 520
CC(=O)N[C@@H](CC(C)C)C(=O)N[C@H](C)C(=O)N[C@@H](CC(C)C)[C@@H](O)CC(=O)N[C@H](C(=O)NCc1cccc(C(=O)O)c1)C(C)C | > 91000
CC[C@H](C)[C@H](NC(C)=O)C(=O)N[C@@H](C)C(=O)N[C@@H](CC(C)C)[C@@H](O)CC(=O)N[C@@H](CC(C)C)C(=O)NCc1cccc(C(=O)O)c1 (Ac-IA[Sta]L[3Amb]-OH) | 260
CC[C@H](C)[C@H](NC(C)=O)C(=O)N[C@@H](C)C(=O)N[C@@H](CC(C)C)[C@@H](O)CC(=O)N[C@H](C(=O)NCc1cccc(C(=O)O)c1)C(C)C | 250
CSCC[C@H](NC(=O)[C@H](CC(C)C)NC(C)=O)C(=O)N[C@@H](CC(C)C)[C@@H](O)CC(=O)N[C@H](C(=O)NCc1cccc(C(=O)O)c1)C(C)C | 890
CSCC[C@H](NC(=O)[C@H](CC(C)C)NC(C)=O)C(=O)N[C@@H](CC(C)C)[C@@H](O)CC(=O)N[C@@H](C(=O)NCc1cccc(C(=O)O)c1)C(C)C | > 91000
CC[C@H](C)[C@H](NC(C)=O)C(=O)N[C@@H](C)C(=O)N[C@@H](CC(C)C)[C@@H](O)CC(=O)N[C@@H](Cc1ccccc1)C(=O)NCc1cccc(C(=O)O)c1 (Ac-IA[Sta]F[3Amb]-OH) | 250
CC(C)C[C@H](NC(=O)[C@H](CC(N)=O)NC(=O)[C@@H](NC(=O)[C@@H](N)CCC(=O)O)C(C)C)[C@@H](O)CC(N)=O (H-EVN[Sta]-NH2) | > 91000
CC(=O)N[C@H](C(=O)N[C@@H](C)C(=O)N[C@@H](CC(C)C)[C@@H](O)CC(=O)N[C@H](C(=O)NCc1cccc(C(=O)O)c1)C(C)C)C(C)C (Ac-VA[Sta]V[3Amb]-OH) | 3800
CC(C)C[C@H](NC(=O)[C@H](CC(N)=O)NC(=O)[C@@H](NC(=O)[C@@H](N)CCC(=O)O)C(C)C)[C@@H](O)CC(=O)N[C@H](C(N)=O)C(C)C (H-EVN[Sta]V-NH2) | 9400
CSCC[C@@H](NC(=O)[C@H](CC(C)C)NC(C)=O)C(=O)N[C@@H](CC(C)C)[C@@H](O)CC(=O)N[C@H](C(=O)NCc1cccc(C(=O)O)c1)C(C)C | > 91000

The next compounds have a lower IC50 than those just listed; values first:

IC50 [nM] | Compound
69 | CC[C@H](C)[C@H](NC(=O)C1CCCCO1)C(=O)N[C@@H](C)C(=O)N[C@@H](CC(C)C)[C@@H](O)CC(=O)N[C@H](C(=O)NCc1cccc(C(=O)O)c1)C(C)C (stereo not given in full) (X1-IA[Sta]V[3Amb]-OH)
46 | CC(C)C[C@H](NC(=O)[C@H](CC(N)=O)NC(=O)[C@@H](NC(=O)[C@@H](N)CCC(=O)O)C(C)C)[C@@H](O)CC(=O)N[C@H](C(=O)N[C@@H](C)C(=O)N[C@@H](CCC(=O)O)C(=O)N[C@@H](Cc1ccccc1)C(=O)O)C(C)C (H-EVN[Sta]VAEF-OH)
91 | CC[C@H](C)[C@H](NC(C)=O)C(=O)N[C@@H](CCSC)C(=O)N[C@@H](CC(C)C)[C@@H](O)CC(=O)N[C@@H](Cc1ccc(O)cc1)C(=O)NCc1cccc(C(=O)O)c1 (Ac-IM[Sta]Y[3Amb]-OH)
110 | CC[C@H](C)[C@H](NC(C)=O)C(=O)N[C@@H](C)C(=O)N[C@@H](CC(C)C)[C@@H](O)CC(=O)N[C@@H](Cc1ccc(O)cc1)C(=O)NCc1cccc(C(=O)O)c1 (Ac-IA[Sta]Y[3Amb]-OH)
180 | CCCC[C@H](NC(=O)C[C@H](O)[C@H](CC(C)C)NC(=O)[C@H](C)NC(=O)[C@@H](NC(C)=O)[C@@H](C)CC)C(=O)NCc1cccc(C(=O)O)c1 (Ac-IA[Sta][Nle][3Amb]-OH)
110 | CC(C)C[C@H](NC(=O)[C@H](C)NC(=O)[C@@H](NC(=O)[C@@H](N)CCC(=O)O)C(C)C)[C@@H](O)CC(=O)N[C@H](C(=O)N[C@@H](C)C(=O)N[C@@H](CCC(=O)O)C(=O)N[C@@H](Cc1ccccc1)C(=O)O)C(C)C (H-EVA[Sta]VAEF-OH)
130 | CCC[C@H](NC(=O)C[C@H](O)[C@H](CC(C)C)NC(=O)[C@H](CCSC)NC(=O)[C@@H](NC(C)=O)[C@@H](C)CC)C(=O)NCc1cccc(C(=O)O)c1 (Ac-IM[Sta][Nva][3Amb]-OH)
140 | CSCC[C@H](NC(=O)[C@@H](NC(=O)[C@@H](N)CCC(=O)O)C(C)C)C(=O)N[C@@H](CC(C)C)[C@@H](O)CC(=O)N[C@@H](CC(C)C)C(=O)N[C@@H](C)C(=O)N[C@@H](CCC(=O)O)C(=O)N[C@@H](Cc1ccccc1)C(=O)O (H-EVM[Sta]LAEF-OH)
110 | CC(C)C[C@H](NC(=O)[C@H](CC(N)=O)NC(=O)[C@@H](NC(=O)[C@@H](N)CCC(=O)O)C(C)C)[C@@H](O)CC(=O)N[C@H](C(=O)N[C@@H](C)C(=O)N[C@@H](CCC(=O)O)C(N)=O)C(C)C (H-EVN[Sta]VAE-NH2)
86 | CCCC[C@H](NC(=O)C[C@H](O)[C@H](CC(C)C)NC(=O)[C@H](CCSC)NC(=O)[C@@H](NC(C)=O)[C@@H](C)CC)C(=O)NCc1cccc(C(=O)O)c1 (Ac-IM[Sta][Nle][3Amb]-OH)
140 | CC[C@H](C)[C@H](NC(C)=O)C(=O)N[C@@H](CCSC)C(=O)N[C@@H](CC(C)C)[C@@H](O)CC(=O)N[C@@H](Cc1ccccc1)C(=O)NCc1cccc(C(=O)O)c1 (Ac-IM[Sta]F[3Amb]-OH)
220 | CC[C@H](C)[C@H](NC(=O)C[C@H](O)[C@H](CC(C)C)NC(=O)[C@H](CCSC)NC(=O)[C@@H](NC(=O)[C@@H](N)CCC(=O)O)C(C)C)C(=O)N[C@@H](C)C(=O)N[C@@H](CCC(=O)O)C(=O)N[C@@H](Cc1ccccc1)C(=O)O (H-EVM[Sta]IAEF-OH)
58 | CSCC[C@H](NC(=O)[C@@H](NC(=O)[C@@H](N)CCC(=O)O)C(C)C)C(=O)N[C@@H](CC(C)C)[C@@H](O)CC(=O)N[C@H](C(=O)N[C@@H](C)C(=O)N[C@@H](CCC(=O)O)C(=O)N[C@@H](Cc1ccccc1)C(=O)O)C(C)C (H-EVM[Sta]VAEF-OH)
